Measurements as given in patent publication US20140228445A1, “ALKYNE DERIVATIVES AS SPHINGOSINE 1-PHOSPHATE (S1P) RECEPTOR MODULATORS” (Allergan, Inc., priority 2013, published 2014).

Molecular target: T1, human S1P1 receptor (Homo sapiens, UniProt P21453)
T1 construct: expressed in transfected cells; membranes used
Assay: GTP γ35S binding assay for S1P1 activity
Format: biochemical
Details: membranes of cells stably expressing the S1P1 receptor, test range 0.08 to 5,000 nM
Experimental: Compounds were synthesized and tested for S1P1 activity using the GTP γ^35S binding assay. These compounds may be assessed for their ability to activate or block activation of the human S1P1 receptor in cells stably expressing the S1P1 receptor.
GTP γ^35S binding was measured in the medium containing (mM) HEPES 25, pH 7.4, MgCl2 10, NaCl 100, dithitothreitol 0.5, digitonin 0.003%, 0.2 nM GTP γ^35S, and 5 μg membrane protein in a volume of 150 μl. Test compounds were included in the concentration range from 0.08 to 5,000 nM unless indicated otherwise. Membranes were incubated with 100 μM 5′-adenylylimmidodiphosphate for 30 min, and subsequently with 10 μM GDP for 10 min on ice. Drug solutions and membrane were mixed, and then reactions were initiated by adding GTP γ^35S and continued for 30 min at 25° C. Reaction mixtures were filtered over Whatman GF/B filters under vacuum, and washed three times with 3 mL of ice-cold buffer (HEPES 25, pH7.4, MgCl2 10 and NaCl 100). Filters were dried and mixed with scintillant, and counted for ^35S activity using a β-counter. Agonist-induced GTP γ^35S binding was obtained by subtracting that in the absence of agonist. Binding data were analyzed using a non-linear regression method. In case of antagonist assay, the reaction mixture contained 10 nM S1P in the presence of test antagonist at concentrations ranging from 0.08 to 5000 nM.

T1 sequence (P21453 whole entry): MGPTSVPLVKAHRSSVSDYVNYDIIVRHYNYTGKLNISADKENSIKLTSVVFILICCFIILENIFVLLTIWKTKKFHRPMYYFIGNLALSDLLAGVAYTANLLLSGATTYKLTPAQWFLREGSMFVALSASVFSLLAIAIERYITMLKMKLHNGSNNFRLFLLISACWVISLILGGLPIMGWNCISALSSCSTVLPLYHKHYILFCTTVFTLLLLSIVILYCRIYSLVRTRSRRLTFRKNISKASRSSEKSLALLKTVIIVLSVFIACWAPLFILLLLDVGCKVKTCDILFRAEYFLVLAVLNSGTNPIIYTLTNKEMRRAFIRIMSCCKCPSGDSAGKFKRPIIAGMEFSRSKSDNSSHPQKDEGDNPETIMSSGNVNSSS

Row | EC50 [µM] | SMILES
1 | 0.0355 | Cc1ccc(CC(C#Cc2ccc(CCC(N)(CO)CO)cc2)c2cc(F)cc(F)c2)cc1C (stereo not drawn) [Compound 1, 2-Amino-2-(2-{4-[3-(3,5-difluorophenyl)-4-(3,4-dimethylphenyl)but-1-yn-1-yl]phenyl}ethyl)propane-1,3-diol]
2 | 0.00327 | Cc1ccc(CC(C#Cc2ccc(CCC(N)(CO)CO)cc2)c2cccc(F)c2)cc1C (stereo not drawn) [Compound 2, 2-Amino-2-(2-{4-[4-(3,4-dimethylphenyl)-3-(3-fluorophenyl)but-1-yn-1-yl]phenyl}ethyl)propane-1,3-diol]
3 | 0.416 | Cc1cccc(C(C#Cc2ccc(CCC(N)(CO)CO)cc2)Cc2ccc(C)c(C)c2)c1 (stereo not drawn) [Compound 3, 2-Amino-2-(2-{4-[4-(3,4-dimethylphenyl)-3-(3-methylphenyl)but-1-yn-1-yl]phenyl}ethyl)propane-1,3-diol]
